For 69 molecules, Kd results are on record in PubChem BioAssay AID608 (Sanford-Burnham Center for Chemical Genomics, 2007).

Activity calls are given as the source filed them. No rule for the calls is given here. Some results are limits rather than exact numbers.

Usually Kd stands for a measure of binding affinity in units of concentration.

In the assay the target is Peptidyl-prolyl cis-trans isomerase FKBP1A (Homo sapiens) (UniProt P62942). Put plainly: small-molecule binding to FKBP12 – biophysical, NMR detection (AID 608). Conditions: purified FKBP12.
Chain of Peptidyl-prolyl cis-trans isomerase FKBP1A (Homo sapiens) (P62942 whole entry, looked up): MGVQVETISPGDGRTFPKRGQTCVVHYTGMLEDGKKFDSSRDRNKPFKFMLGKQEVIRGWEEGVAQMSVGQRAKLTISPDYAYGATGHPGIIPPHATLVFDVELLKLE
As for `CN1C(=O)C2CC=C(Cl)CC2C1=O` (centres undefined), the Kd is > 4 mM (inactive).
For `COc1ccc2cnn(-c3ccccc3)c(=O)c2c1OC` the value was > 4 mM (inactive); for `COc1cc(O)c2c(c1)C(=O)c1cc(C)cc(O)c1C2=O`, > 4 mM (inactive); for `CCNC(CC(=O)Nc1cccc([N+](=O)[O-])c1)C(=O)O` (centres undefined), > 4 mM (inactive).
With `CN(C)/C=N/S(=O)(=O)c1ccccc1`, the Kd was > 4 mM (inactive).
The figure for `Cc1cc2ncn(S(=O)(=O)N3CCCCC3)c2cc1C` is > 4 mM (inactive).
The figure for `Cc1cc(C)nc(N2CC(=O)N(C)C2=N)n1` is > 4 mM (inactive).
For `CN(C)CCCN1CNC(=S)NC1`, the Kd was > 4 mM (inactive).
With `O=C(O)c1cn(-c2ccccc2)nc1-c1cccnc1`, the Kd is > 4 mM (inactive).
For `CC(=O)O[C@H]1CCC2(C)C3=C(CCC2C1(C)C)[C@@]1(C)CC[C@@H](C(C)CCC=C(C)C)[C@]1(C)CC3` (some centres undefined) the value was > 4 mM (inactive).
For `CCOC(=O)c1c(SC)nc(=O)[nH]c1C` the value was > 4 mM (inactive); for `CN(C)c1ccc(NC(=O)CC(C(=O)O)N(C)C)cc1` (centres undefined), > 4 mM (inactive); for `COc1ccc(C(=O)/C=C2\NC(=S)NC2=O)cc1`, > 4 mM (inactive).
In the case of `OCc1csc(-c2ccccc2)n1`, the Kd was > 4 mM (inactive).
Take `O=C(Cc1c(F)cccc1Cl)Nc1cccnc1`: the Kd is > 4 mM (inactive).
The figure for `Cc1ccc(C(=O)Nc2ccncc2)o1` is > 4 mM (inactive).
The figure for `O=C(O)CCCNC(=O)c1ccccc1C(=O)O` is > 4 mM (inactive); for `CN1CCN(C(=S)c2ccc(N(C)C)cc2)CC1` it is > 4 mM (inactive); for `O=C1Nc2ccccc2C12OCCO2` it is > 4 mM (inactive).
The figure for `C[C@H](CCC(=O)O)[C@H]1CCC2C3C(CC[C@@]21C)[C@@]1(C)CC[C@@H](O)C[C@H]1C[C@@H]3O` (some centres undefined) is > 4 mM (inactive); for `CC(=O)NC1(NC(C)=O)CCN(C)CC1` it is > 4 mM (inactive); for `C=C(C)[C@@H]1CC[C@]2(CO)CC[C@]3(C)[C@H](CCC4[C@@]5(C)CC[C@H](O)C(C)(C)C5CC[C@]43C)C12` (some centres undefined) it is > 4 mM (inactive).
As for `O=C1CS/C(=N/N=C/c2cccs2)N1`, the Kd is > 4 mM (inactive).
Regarding `CC(C)NC(=O)c1cc(=O)n(C)c(=O)n1C`, the Kd was > 4 mM (inactive).
For `O=c1cc(-c2ccc(O)cc2)oc2cc(O[C@@H]3O[C@H](CO)[C@@H](O)[C@H](O)[C@H]3O[C@@H]3OC[C@](O)(CO)[C@H]3O)cc(O)c12`, the Kd is > 4 mM (inactive).
The entry for `CC(=O)Nc1nnc(-c2ccc(Cn3c(-c4cscn4)nc4ccccc43)cc2)s1` is “inactive”.
As for `CC(=O)c1ccc(N2C(=O)C(C(C)C)NC2=S)cc1` (centres undefined), the Kd was > 4 mM (inactive).
Take `COc1ncccc1N`: the Kd was > 4 mM (inactive).
For `CC(=O)N1CN(C(C)=O)CN(C(C)=O)C1` the value was > 4 mM (inactive); for `C[C@H]1O[C@@H](O[C@H]2[C@@H](O)C[C@H](O[C@H]3[C@@H](O)C[C@H](O[C@H]4CC[C@]5(C)C6CC[C@]7(C)[C@@H](C8=CC(=O)OC8)CC[C@]7(O)C6CC[C@@H]5C4)O[C@@H]3C)O[C@@H]2C)C[C@H](O)[C@@H]1O` (some centres undefined), > 4 mM (inactive); for `O=C(O)CC[N+](=O)[O-]`, > 4 mM (inactive).
The figure for `Oc1ccccc1-c1nnco1` is > 4 mM (inactive); for `O=C(O)CCCCCCCC(=O)O` it is > 4 mM (inactive).
On to `C/C=C(\C)C(=O)OC1[C@@H]2C=C3C(CC[C@]4(C)C3CC(=O)O[C@H]4c3ccoc3)C(C)(C2=O)[C@@H](C(O)C(=O)OC)C1(C)C` (some centres undefined), for which the Kd is > 4 mM (inactive).
The figure for `Cc1cc(=O)oc2cc3c(cc12)OCCO3` is > 4 mM (inactive).
`COc1cc(CNCCc2ccc(S(N)(=O)=O)cc2)ccc1OCC(=O)N1CCOCC1`: the Kd is > 4 mM (inactive).
For `CC1CN=C(Nc2ccccc2)S1` (centres undefined) the value was > 4 mM (inactive); for `Nc1cc(F)ccc1-n1ccnc1`, > 4 mM (inactive); for `CCCn1c(C)cc(=O)[nH]c1=O`, > 4 mM (inactive).
As to `Cc1occc1C(=O)Nc1ccc2c(c1)OCO2`, the Kd is > 4 mM (inactive).
Consider `CC1CCc2cc(F)ccc2N1C(=O)c1ccc(=O)[nH]n1` (centres undefined), for which the Kd is > 4 mM (inactive).
With `O=C1NC(=O)C(C(=S)Nc2ccccc2)C(=O)N1`, the Kd was > 4 mM (inactive).
For `CC(=O)NCCc1cc2ccc(C)c(C)c2[nH]c1=O` the value was > 4 mM (inactive).
`COCCn1c(N)nc2c1c(=O)[nH]c(=O)n2C`: the Kd is > 4 mM (inactive).
For `CC(=O)Nc1ccc(Oc2nc(C)cc(C)n2)cc1` the value was > 4 mM (inactive).
The figure for `COc1cc2[nH]c(=S)n(C)c(=O)c2cc1OC` is > 4 mM (inactive); for `Cc1ccc(-c2nnc3sc(-c4ccncc4)nn23)cc1` it is > 4 mM (inactive); for `CCP(=O)(CC)c1cccc(C)c1` it is > 4 mM (inactive).
For the molecule `Cc1ccc(S(=O)(=O)CC(N)=O)cc1`, the Kd was > 4 mM (inactive).
For `CCC(/C=C/[C@@H](C)[C@H]1CCC2C3CC=C4C[C@@H](O)CC[C@]4(C)C3CC[C@@]21C)C(C)C` (some centres undefined) the value was > 4 mM (inactive); for `Cc1nnsc1C(=O)Nc1ccc(C(N)=O)cc1`, > 4 mM (inactive).
The figure for `O=C(CN1CCOCC1)Nc1cccc(Br)c1` is > 4 mM (inactive).
`Cc1cc(C)nc(/N=C(/N)N2CCOCC2)n1`: the Kd is > 4 mM (inactive).
On to `CC(=O)N1CCN(S(=O)(=O)c2ccccc2)CC1`, for which the Kd was > 4 mM (inactive).
Turning to `CNC(=O)C1COc2ccccc2O1` (centres undefined), the Kd was > 4 mM (inactive).
For `Nc1nc2n(c1C(=O)c1ccccc1)CCC2` the value was > 4 mM (inactive).
For `O=C(CS(=O)(=O)c1ccccc1)Nc1nccs1`, the Kd is > 4 mM (inactive).
Turning to `CCOC12NC(=O)CC(=O)N1C(c1ccccc1)=CS2` (centres undefined), the Kd was > 4 mM (inactive).
The figure for `Cc1c(O)c(O)cc2c1CC=C1[C@@]2(C)CC[C@@]2(C)C3C[C@](C)(C(=O)O)CC[C@]3(C)CC[C@]12C` (some centres undefined) is > 4 mM (inactive); for `CC(C)C(C)/C=C/C(C)C1CCC2C3=CC=C4CC(O)CCC4(C)C3CCC21C` (centres undefined) it is > 4 mM (inactive); for `CC(=O)O[C@]1(C)CC[C@@]23CC1C(C)(C)[C@@H]2CC[C@H]3C` it is > 4 mM (inactive).
For `NCc1ccc2c(c1)OCCCO2` the value was > 4 mM (inactive); for `O=C(O)c1csc2ccccc12`, > 4 mM (inactive); for `O=C(c1cnsn1)N1CCN(c2ccccn2)CC1`, > 4 mM (inactive).
Take `O=C1CC(c2ccccc2)n2ncnc2N1` (centres undefined): the Kd is > 4 mM (inactive).
`Cc1cc(NC(=O)CSc2nncn2C)no1`: the Kd is > 4 mM (inactive).
`Nc1ccc(F)cc1F`: the Kd was > 4 mM (inactive).
`O=c1c(-c2cccs2)[n+]([O-])c2ccccc2n1O`: the Kd was > 4 mM (inactive).
The figure for `O=C1C2C3C=CC(C3)C2C(=O)N1CCCO` (centres undefined) is > 4 mM (inactive).
